From patent publication US10220040B2, “Compounds, compositions and methods useful for cholesterol mobilization” (Cerenis Therapeutics Holding SA, priority 2010, dated 2019)

Experiments:
C57Bl6 mice = experiment: Dose response on bile physiology after single oral gavage in mice; assay type: in vivo; conditions: oral gavage 0.003, 0.03 and 0.3 mg/kg, bile analyzed 6 hours later
Procedure: FIG. 16A-J: Increase of bile secretion following activation of P2Y13r pathway in mice. C57Bl/6J mice (n=10) were fasted for 2 h and then intravenously injected with Cangrelor® or Compound IIa (10 nmoles/kg). Four hours later the gallbladders were removed and analyzed for: Bile acids content (FIG. 16A); Bile cholesterol content (FIG. 16B). C57Bl/6J mice (n=10) were fasted for 2 h followed by single oral dose of P2Y13r agonist Compound IIa at 3, 30 or 300 μg/kg. Six hours later bile acids contents (FIG. 16C); bile cholesterol content (FIG. 16D), and bile acid content of liver (FIG. 16E) were evaluated using HPLC and enzymatic kits for gallbladers. Plasma samples were collected at time 0 and after 6 h of treatment, then analyzed for: total cholesterol (▴), unesterified cholesterol (●), esterified cholesterol (▪) and HDL cholesterol (▾) determined using either enzymatic kits or Lipoprint® for HDL cholesterol (FIG. 16F). C57Bl/6J mice (n=5) were intravenously injected with [^3H]-cholesterol-labelled mouse HDL (FIG. 16G), [^3H]-cholesteryl oleate-labelled mouse HDL (FIG. 16H) or [^3H]-cholesterol-labelled mouse LDL (FIG. 16I), and with Cangrelor® or Compound IIa (10 nmoles/kg). Radioactivity present in the liver was determined 2 hours later for the HDL or 5 hours later for the LDL. Cholesterol content of feces from treated animals (100 μg/kg) was determined by Charge aerosol detection (FIG. 16J). *p<0.05, **p<0.01.
The dose response after oral gavage was determined for illustrative compounds of the invention. The chosen doses were 0.003, 0.03 and 0.3 mg/kg. The selected compounds of the invention were administrated by oral gavage and 6 hours later the mice are sacrificed and the bile content was analyzed (FIGS. 6-11).
Bile acids were diluted in PBS (1:5000) and the concentration was measured according to the manufacturer protocol with slight modifications. Concentrations of bile acids in the standard curve were varied from […] and the enzymatic reaction was performed for 20 minutes. 4 μl of 1:5000 bile dilution was used for concentration determination.
Bile phospholipids were measured according to the manufacturer protocol. Briefly, the standards were varied from 0 to 20 μg/ml and 4 μl of bile was measured in the assay. The reaction was performed for 5 minutes at 37° C.
Bile phospholipids were measured according to the manufacturer protocol. Briefly, the standards were varied from 0 to 60 μg/ml and 10 μl of bile (dilution 1:10) was measured in the assay. The reaction was performed for 5 minutes at 37° C.

HepG2 cells [1] = experiment: In vitro HDL internalization in human hepatocytes (HepG2) cells; assay type: cell-based; conditions: compound 1 μM; 3H-labeled HDL 75 μg/ml, 10 min at 37° C.
Procedure: FIG. 3: Single-dose effect of the selected molecules on HDL internalization by HepG2 cells. Cells were incubated for 10 min at 37° C. with 75 μg/ml ^3H cholesterol Cholesteryl Oleate [Cholesteryl-1,2-^3H(N)] HDL, Reference Compound (100 nM) and illustrative compounds of the invention (1 μM). Data are expressed as the percentage of internalized radioactivity with respect to the control value (set as […]). *p<0.005, **p<0.0001.
The effect of illustrative compounds of the invention on HDL internalization was measured by an in vitro assay on HepG2 cells (FIG. 3). ^3H cholesterol Cholesteryl Oleate [Cholesteryl-1,2-^3H(N)] labeled HDL] (available from PerkinElmer http://www.perkinelmer.com/Catalog/Product/ID/NET746L001MC) was loaded on HepG2 cells in presence of illustrative compounds of the invention (final concentration 1 μM). […] It was determined that Compounds XIa, IIc, IIa and Ih (R-isomer) have a strong impact on HDL uptake by HepG2 cells; Compounds IIb, VIIa and VIIIa have a modest impact on HDL uptake by HepG2 cells.
^3H cholesterol Cholesteryl Oleate [Cholesteryl-1,2-^3H(N)] (Perkin Elmer) solution (250 μL) was dried and resuspended in acetone (250 μL). The solution was mixed with Lipoprotein delipidated serum (20 mL at 40 mg/mL) and DTNB (0.4 μM final concentration). HDL (7 mg) was added and incubated overnight at 4° C. on gentle rotation. The HDL was purified on KBr gradient as previously described.
Hepatocytes were plated at 300,000 cells/well in 6×-well plates. Two days later, the cells were washed once with DMEM and incubated for 1 hour in DMEM at 37° C. 75 μg of radio-labeled HDL (6500 dpm/μg) were added to the medium and incubated for 10 minutes at 37° C. The cells were washed once with DMEM (2 mL) and incubated for 1.5 hours in DMEM at 4° C., whereupon dissociation occurred. Then the cells were washed once more with cold DMEM (2 mL) and the incorporated cholesterol ether was retrieved from HepG2 cells by the addition of hexane:isopropanol (3:2) solution (1 mL).

human P2Y13 receptor = human P2Y13 receptor (Homo sapiens (Human), UniProt Q9BPV8); experiment: Ca++ flux agonist assay on P2Y13 receptor transfected 1321N1 cells; assay type: cell-based; conditions: comma is decimal sign
human P2Y13 receptor, sequence (Q9BPV8 whole entry): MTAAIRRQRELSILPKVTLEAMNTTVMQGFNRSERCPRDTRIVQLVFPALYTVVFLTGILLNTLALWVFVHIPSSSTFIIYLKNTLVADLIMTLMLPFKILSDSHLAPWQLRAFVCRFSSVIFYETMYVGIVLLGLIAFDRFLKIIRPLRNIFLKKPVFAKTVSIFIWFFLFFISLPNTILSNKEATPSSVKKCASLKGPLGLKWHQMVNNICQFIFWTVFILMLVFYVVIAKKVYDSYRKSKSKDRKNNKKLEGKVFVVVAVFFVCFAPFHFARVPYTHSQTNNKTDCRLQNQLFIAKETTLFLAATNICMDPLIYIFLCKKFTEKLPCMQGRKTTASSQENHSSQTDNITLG
Procedure: Compounds were assayed for their agonist activity on P2Y13 GPCR transfected cells using a Ca++ flux assay (associated to fluorescent dye detection) with the Reference Compound as positive reference. Two cell lines, 1321N1-P2Y13 stably expressing human P2Y13 receptor, and 1321N1 parental cell line as control, were used in this assay. 1321N1 Parental and 1321N1 P2Y13 were seeded into T25 flasks at 3 million cells per flask, respectively. Cells were incubated at 37 degrees Celsius in 5% CO2 overnight. The day after, cells were transfected with Gqi5 protein using Fugene transfection reagent (Roche's Fugene Reagent).
After 24 hours of transfection, cells were collected from flasks and seeded in 384-well plates at 8000 cells per well. The assays were carried out 48 hours after Gqi5 transfection.
Methods: The Ca++ flux assay was conducted according to the manufacturer's protocol (Molecular Devices FLIPR Calcium 4 Assay kit (R8142). Briefly, cell culture media were aspirated from the wells and replaced with 25 μL of Hank's buffer or PBS buffer. 25 μL of Ca++ dye was added into each assay well. The plate was incubated for 1 hour at 37° C. in 5% CO2. After the incubation, the plate was transferred to FlexStation III (FlexStation III (Molecular Devices)). The compounds were automatically injected into each well.

HepG2 cells [2] = conditions: previously reported (Jacquet et al. 2005); positive control; cited from earlier work
[3] = Table 4, measured from data of Figure 2
[4] = Table 3, measured from data of Figure 1

| Compound | EC50 (human P2Y13 receptor; [3]) [µM] | EC50 (human P2Y13 receptor; [4]) [µM] | dose at which an effect on bile acids, bile cholesterol and bile phospholipids was shown (C57Bl6 mice) [µg/kg] | impact on HDL uptake by HepG2 cells (HepG2 cells [1]) | HDL uptake in HepG2 cells in vitro (HepG2 cells [2]) |
| --- | --- | --- | --- | --- | --- |
| 6-[1-(2-methylaminopyrimidin-5-ylmethyl)-piperidin-4-yl]-2-piperidin-1-yl-pyrimidin-4-ol [Compound IIc] | 6.63 |  | 3 | strong impact |  |
| CCOC(=O)C(C)(C)CCCC[C@H](c1ccccc1Cl)N1CCc2sccc2C1 [Compound Ih (R-isomer)] |  | 42.4 |  | strong impact |  |
| CCOc1cc(C2CC(=O)Nc3c2cnn3-c2ccccc2CC)ccc1O (stereo not shown) [Compound VIIIa, 4-(3-Ethoxy-4-hydroxy-phenyl)-1-(2-ethyl-phenyl)-1,4,5,7-tetrahydro-pyrazolo[3,4-b]pyridin-6-one] |  |  | 3 |  |  |
| O=C(C1OCCc2ccccc21)N1CCC2(CC1)Nc1ccccc1-n1cccc12 (stereo not shown) [Compound VIIa, isochroman-1-yl(5′H-spiro[piperidine-4,4′-pyrrolo[1,2-a]quinoxaline]-1-yl)methanone] | 40.3 |  | 300 | modest impact |  |

More lines, main results first:

| EC50 (human P2Y13 receptor; [3]) [µM] | EC50 (human P2Y13 receptor; [4]) [µM] | Compound | dose at which an effect on bile acids, bile cholesterol and bile phospholipids was shown (C57Bl6 mice) [µg/kg] | impact on HDL uptake by HepG2 cells (HepG2 cells [1]) | HDL uptake in HepG2 cells in vitro (HepG2 cells [2]) |
| --- | --- | --- | --- | --- | --- |
| 0.299 |  | COc1ccc(CN2CCC(c3cc(O)nc(N4CCCCC4)n3)CC2)cc1O [Compound IIb, 6-[1-(3-Hydroxy-4-methoxybenzyl)-piperidin-4-yl]-2-piperidin-1-yl-pyrimidin-4-ol] | 300 | modest impact |  |
|  | 33.7 | CCOC(=O)C(C)(C)CCCC[C@@H](c1ccccc1Cl)N1CCc2sccc2C1 [Compound Ih (S-isomer)] |  |  |  |
|  | 55.2 | CC(C)(CCCCCC(c1ccccc1Cl)N1CCC(O)/C(=C/C(=O)O)C1)C(=O)O (stereo not shown) [Compound Va] |  |  |  |
| 0.0489 |  | COCCNCC(=O)Nc1ccc2c(c1)OCCO2 [Compound XIa, N-(2,3-Dihydrobenzo[1,4]dioxin-6-yl)-2-(2-methoxy-ethylamino)-acetamide] | 3 | strong impact |  |
| 0.00632 |  | CSCCNc1nc(SCCC(F)(F)F)nc2c1ncn2[C@@H]1O[C@H](COP(=O)(O)OP(=O)(O)C(Cl)(Cl)P(=O)(O)O)[C@@H](O)[C@H]1O [Reference Compound, Dichloro-(((((2R,3S,4R,5R)-3,4-dihydroxy-5-(6-(2-(methylthio)ethylamino)-2-(3,3,3-trifluoropropylthio)-9H-purin-9-yl)tetrahydrofuran-2-yl)methoxy)(hydroxy)phosphoryloxy)(hydroxy)phosphoryl)-methylphosphonic acid, reference compound] |  |  | increase the HDL uptake |
